Source: PubChem BioAssay AID1918935 (Molecular Pharmacology Branch, DTP, NCI, 2023)
pIC50: −log10 of the molar value.

System: 324938-238-R-J1-PDC complex spheroid viability
Test: Anticancer human tumor 324938-238-R-J1-PDC patient-derived bladder carcinoma cell line growth inhibition
Settings: for pIC50: curve of first compound; for viability, T/C: stronger effect = lower value
Method in brief: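 Multicellular complex spheroids of tumor cells with human endothelial cells (HUVEC) and mesenchymal stem cells; the LSD1 inhibitor iadademstat was combined with standard-of-care or investigational agents. Top concentration at or near clinical Cmax, half-log dilutions; final DMSO ≤0.25%.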

[1] = second compound 0.1 µM, first compound 0.0316 µM
[2] = second compound 0.1 µM, first compound 0.1 µM
[3] = second compound 0.316 µM, first compound 0.0316 µM
[4] = second compound 0.316 µM, first compound 0.1 µM
[5] = second compound 1 µM, first compound 0.0316 µM
[6] = second compound 1 µM, first compound 0.1 µM
[7] = second compound 3.16 µM, first compound 0.0316 µM
[8] = second compound 3.16 µM, first compound 0.1 µM
[9] = second compound 10 µM, first compound 0.0316 µM
[10] = second compound 10 µM, first compound 0.1 µM
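Further: spheroids also contain HUVEC and human MSCs and agents combined with iadademstat; spheroids exposed to agents for 7 days before readout.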

Compound: CC1(C)CCC(CN2CCN(c3ccc(C(=O)NS(=O)(=O)c4ccc(NCC5CCOCC5)c([N+](=O)[O-])c4)c(Oc4cnc5[nH]ccc5c4)c3)CC2)=C(c2ccc(Cl)cc2)C1 + NC1CCC(NC2CC2c2ccccc2)CC1
- pIC50 (second compound 0.1 µM): 5.29
- pIC50 (second compound 0.316 µM): 5.25
- pIC50 (second compound 1 µM): 5.37
- pIC50 (second compound 3.16 µM): 5.34
- pIC50 (second compound 10 µM): 5.35
- viability, T/C [1]: 75.7%
- viability, T/C [2]: 71.4%
- viability, T/C (second compound 0.1 µM, first compound 0.316 µM): 72.2%
- viability, T/C (second compound 0.1 µM, first compound 1 µM): 71%
- viability, T/C (second compound 0.1 µM, first compound 3.16 µM): 65.2%
- viability, T/C (second compound 0.1 µM, first compound 10 µM): 29.1%
- viability, T/C [3]: 74.2%
- viability, T/C [4]: 75.5%
- viability, T/C (second compound 0.316 µM, first compound 0.316 µM): 79.7%
- viability, T/C (second compound 0.316 µM, first compound 1 µM): 71.2%
- viability, T/C (second compound 0.316 µM, first compound 3.16 µM): 69.7%
- viability, T/C (second compound 0.316 µM, first compound 10 µM): 30.9%
- viability, T/C [5]: 75.2%
- viability, T/C [6]: 78%
- viability, T/C (second compound 1 µM, first compound 0.316 µM): 68.7%
- viability, T/C (second compound 1 µM, first compound 1 µM): 66.1%
- viability, T/C (second compound 1 µM, first compound 3.16 µM): 60.6%
- viability, T/C (second compound 1 µM, first compound 10 µM): 26.7%
- viability, T/C [7]: 68.3%
- viability, T/C [8]: 68%
- viability, T/C (second compound 3.16 µM, first compound 0.316 µM): 68.8%
- viability, T/C (second compound 3.16 µM, first compound 1 µM): 70.8%
- viability, T/C (second compound 3.16 µM, first compound 3.16 µM): 61.7%
- viability, T/C (second compound 3.16 µM, first compound 10 µM): 24.8%
- viability, T/C [9]: 71.7%
- viability, T/C [10]: 64.3%
- viability, T/C (second compound 10 µM, first compound 0.316 µM): 64.7%
- viability, T/C (second compound 10 µM, first compound 1 µM): 70.4%
- viability, T/C (second compound 10 µM, first compound 3.16 µM): 59.5%
- viability, T/C (second compound 10 µM, first compound 10 µM): 26%

Compound: CCN(c1cc(-c2ccc(CN3CCOCC3)cc2)cc(C(=O)NCc2c(C)cc(C)[nH]c2=O)c1C)C1CCOCC1 + NC1CCC(NC2CC2c2ccccc2)CC1
- pIC50 (second compound 0.1 µM): < 5.52
- pIC50 (second compound 0.316 µM): < 5.52
- pIC50 (second compound 1 µM): < 5.52
- pIC50 (second compound 3.16 µM): < 5.52
- pIC50 (second compound 10 µM): < 5.52
- viability, T/C (second compound 0.1 µM, first compound 0.00949 µM): 76.4%
- viability, T/C (second compound 0.1 µM, first compound 0.03 µM): 75.4%
- viability, T/C (second compound 0.1 µM, first compound 0.0949 µM): 76.7%
- viability, T/C (second compound 0.1 µM, first compound 0.3 µM): 77.6%
- viability, T/C (second compound 0.1 µM, first compound 0.949 µM): 75.8%
- viability, T/C (second compound 0.1 µM, first compound 3 µM): 77.6%
- viability, T/C (second compound 0.316 µM, first compound 0.00949 µM): 74.5%
- viability, T/C (second compound 0.316 µM, first compound 0.03 µM): 83.1%
- viability, T/C (second compound 0.316 µM, first compound 0.0949 µM): 70.5%
- viability, T/C (second compound 0.316 µM, first compound 0.3 µM): 74.8%
- viability, T/C (second compound 0.316 µM, first compound 0.949 µM): 80.4%
- viability, T/C (second compound 0.316 µM, first compound 3 µM): 75.1%
- viability, T/C (second compound 1 µM, first compound 0.00949 µM): 74.5%
- viability, T/C (second compound 1 µM, first compound 0.03 µM): 74.7%
- viability, T/C (second compound 1 µM, first compound 0.0949 µM): 71.5%
- viability, T/C (second compound 1 µM, first compound 0.3 µM): 81%
- viability, T/C (second compound 1 µM, first compound 0.949 µM): 72.8%
- viability, T/C (second compound 1 µM, first compound 3 µM): 81.7%
- viability, T/C (second compound 3.16 µM, first compound 0.00949 µM): 67.8%
- viability, T/C (second compound 3.16 µM, first compound 0.03 µM): 74.7%
- viability, T/C (second compound 3.16 µM, first compound 0.0949 µM): 71.5%
- viability, T/C (second compound 3.16 µM, first compound 0.3 µM): 74%
- viability, T/C (second compound 3.16 µM, first compound 0.949 µM): 72.9%
- viability, T/C (second compound 3.16 µM, first compound 3 µM): 69%
- viability, T/C (second compound 10 µM, first compound 0.00949 µM): 72.1%
- viability, T/C (second compound 10 µM, first compound 0.03 µM): 68.7%
- viability, T/C (second compound 10 µM, first compound 0.0949 µM): 76.5%
- viability, T/C (second compound 10 µM, first compound 0.3 µM): 70.5%
- viability, T/C (second compound 10 µM, first compound 0.949 µM): 66.4%
- viability, T/C (second compound 10 µM, first compound 3 µM): 74.2%

Compound: Cn1ncnc1C1c2n[nH]c(=O)c3cc(F)cc(c23)NC1c1ccc(F)cc1 (stereo not given) + NC1CCC(NC2CC2c2ccccc2)CC1
- pIC50 (second compound 0.1 µM): < 7.00
- pIC50 (second compound 0.316 µM): < 7.00
- pIC50 (second compound 1 µM): < 7.00
- pIC50 (second compound 3.16 µM): 7.10
- pIC50 (second compound 10 µM): 7.13
- viability, T/C (second compound 0.1 µM, first compound 0.000316 µM): 75.7%
- viability, T/C (second compound 0.1 µM, first compound 0.001 µM): 81.6%
- viability, T/C (second compound 0.1 µM, first compound 0.00316 µM): 66.8%
- viability, T/C (second compound 0.1 µM, first compound 0.01 µM): 64.1%
- viability, T/C [1]: 63.1%
- viability, T/C [2]: 50.8%
- viability, T/C (second compound 0.316 µM, first compound 0.000316 µM): 95%
- viability, T/C (second compound 0.316 µM, first compound 0.001 µM): 86.9%
- viability, T/C (second compound 0.316 µM, first compound 0.00316 µM): 73.8%
- viability, T/C (second compound 0.316 µM, first compound 0.01 µM): 66.3%
- viability, T/C [3]: 65.4%
- viability, T/C [4]: 55.8%
- viability, T/C (second compound 1 µM, first compound 0.000316 µM): 70.3%
- viability, T/C (second compound 1 µM, first compound 0.001 µM): 71.1%
- viability, T/C (second compound 1 µM, first compound 0.00316 µM): 77.2%
- viability, T/C (second compound 1 µM, first compound 0.01 µM): 73%
- viability, T/C [5]: 59.8%
- viability, T/C [6]: 52.6%
- viability, T/C (second compound 3.16 µM, first compound 0.000316 µM): 68.1%
- viability, T/C (second compound 3.16 µM, first compound 0.001 µM): 77.6%
- viability, T/C (second compound 3.16 µM, first compound 0.00316 µM): 74.7%
- viability, T/C (second compound 3.16 µM, first compound 0.01 µM): 66.8%
- viability, T/C [7]: 58.4%
- viability, T/C [8]: 48.1%
- viability, T/C (second compound 10 µM, first compound 0.000316 µM): 66.2%
- viability, T/C (second compound 10 µM, first compound 0.001 µM): 72.7%
- viability, T/C (second compound 10 µM, first compound 0.00316 µM): 71.8%
- viability, T/C (second compound 10 µM, first compound 0.01 µM): 65%
- viability, T/C [9]: 54.7%
- viability, T/C [10]: 48.3%
